This assay deals with Cathepsin S (Homo sapiens, UniProt P25774). The assay is described as follows: Cathepsin S inhibition, fluorogenic peptide substrate kinetic assay. It counts as biochemical. The settings on record: Table II; Cathepsin S inhibition constant, pH5.5; read-out: Ki Cat. S. The method, boiled down: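 Ki values derive from apparent constants fitted to progress curves, corrected for competition with substrate via [S] and Km. Kinetics were monitored at 380 nm excitation/450 nm emission, after substrate addition (Ac-HPVK-ACC, 50 μM final) to start the reaction.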

The text below walks through data of patent publication US20040248887A1, “Inhibitors of cathepsin S” (IRM LLC, priority 2003, published 2004).

Some results are limits rather than exact numbers.

Cathepsin S, sequence (P25774 115-331, species assumed): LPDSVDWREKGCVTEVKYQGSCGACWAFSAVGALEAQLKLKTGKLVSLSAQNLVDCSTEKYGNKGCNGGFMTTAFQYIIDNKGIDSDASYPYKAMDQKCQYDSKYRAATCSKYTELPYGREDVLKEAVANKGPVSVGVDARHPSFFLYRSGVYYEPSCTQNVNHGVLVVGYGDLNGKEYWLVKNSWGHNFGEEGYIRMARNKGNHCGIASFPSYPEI

Regarding `O=C(N[C@@H](CC1CC1)C(=O)NCCN1CCc2cc(F)ccc21)c1ccc(-c2cccc(C(F)(F)F)c2)o1` [Compound 194, N-((S)-1-(2-(5-fluoroindolin-1-yl)ethylcarbamoyl)-2-cyclopropylethyl)-5-(3-(trifluoromethyl)phenyl)furan-2-carboxamide], the Ki (usually the equilibrium dissociation constant of an inhibitor or competing ligand from its target) is < 1000 nM. As for `CC(C)(C)C[C@H](NC(=O)OC(C)(C)C)C(=O)N[C@@H](COCc1ccccc1)CN1CCc2cc(F)ccc21` [Compound 154, {1-(S)-[1-(R)-Benzyloxymethyl-2-(5-fluoro-2,3-dihydro-indol-1-yl)-ethylcarbamoyl]-3,3-dimethyl-butyl}-carbamic acid tert-butyl ester], the Ki was < 100 nM.

In the case of `C[C@@H](CNc1ccc(C(=O)N(C)C)cc1)NC(=O)[C@H](CC1CCCCC1)NC(=O)c1ccc(-c2cccc(F)c2)o1` [Compound 122, 5-(3-Fluoro-phenyl)-furan-2-carboxylic acid {2-cyclohexyl-1-(S)-[2-(4-dimethylcarbamoyl-phenylamino)-1-(S)-methyl-ethylcarbamoyl]-ethyl}-amide], the inhibition constant (Ki) was < 100 nM. With `C[C@@H](CN1CC(C)(C)c2cc(F)ccc21)NC(=O)[C@H](CC(C)(C)C)NC(=O)[C@H]1CCCO1` [Compound 271, Tetrahydro-furan-2-(R)-carboxylic acid {1-(S)-[2-(5-fluoro-3,3-dimethyl-2,3-dihydro-indol-1-yl)-1-(S)-methyl-ethylcarbamoyl]-3,3-dimethyl-butyl}-amide] the figure was < 10000 nM; with `C[C@@H](CN1CC(C)(C)c2cc(F)ccc21)NC(=O)[C@H](CC1CCCCC1)NC(=O)O[C@H]1CCOC1` [Compound 217, (S,S)-{2-Cyclohexyl-1-[2-(5-fluoro-3,3-dimethyl-2,3-dihydro-indol-1-yl)-1-methyl-ethylcarbamoyl]-ethyl}-carbamic acid (S)-tetrahydro-furan-3-yl ester], < 100 nM.

`Cc1cccc(C(=O)NC(C(=O)NCCN2CCc3cc(F)ccc32)c2ccc(Cl)cc2Cl)c1` (racemic) [Compound 213, (R,S)-N-((2-(5-fluoroindolin-1-yl)ethylcarbamoyl)(2,4-dichlorophenyl)methyl)-3-methylbenzamide]: the inhibition constant (Ki) was < 1000 nM.

`Cc1cccc(C(=O)N[C@@H](Cc2ccccc2)C(=O)NCCN2CCc3cc(F)ccc32)c1` [Compound 205, N-((S)-1-(2-(5-fluoroindolin-1-yl)ethylcarbamoyl)-2-phenylethyl)-3-methylbenzamide]: the inhibition constant (Ki) was < 1000 nM. With `COc1cccc(C(=O)N[C@@H](CCC2CCCCC2)C(=O)NCCN2CCc3cc(C#N)ccc32)c1` [Compound 12, (S)-N-{3-Cyclohexyl-1-[2-(5-cyano-2,3-dihydro-indol-1-yl)-ethylcarbamoyl]-propyl}-3-methoxy-benzamide] the figure was < 10000 nM; with `CC(C(=O)N[C@@H](CC1CCCCC1)C(=O)NCCN1CCc2cc(F)ccc21)c1ccc(-c2ccccc2)c(F)c1` (stereo partly drawn) [Compound 59, N-{2-cyclohexyl-1-(S)-[2-(5-fluoro-2,3-dihydro-indol-1-yl)-ethylcarbamoyl]-ethyl}-2-(2-fluoro-biphenyl-4-yl)-propionamide], < 100 nM. The result for `CC(C)(C)C[C@H](NC(=O)OC(C)(C)C)C(=O)N[C@@H](CCS(C)(=O)=O)CN1CCc2cc(F)ccc21` [Compound 157, {1-(S)-[1-(S)-(5-Fluoro-2,3-dihydro-indol-1-ylmethyl)-3-methanesulfonyl-propylcarbamoyl]-3,3-dimethyl-butyl}-carbamic acid tert-butyl ester] reads < 100 nM; that for `COc1cccc(C(=O)N[C@@H](CC2CCCCC2)C(=O)N[C@@H](COCc2ccccc2)CN2CCc3cc(F)ccc32)c1` [Compound 149, N-{1-(S)-[1-(R)-Benzyloxymethyl-2-(5-fluoro-2,3-dihydro-indol-1-yl)-ethylcarbamoyl]-2-cyclohexyl-ethyl}-3-methoxy-benzamide], < 100 nM. The result for `C[C@@H](CNc1cccc(C#N)c1)NC(=O)[C@H](CC1CCCCC1)NC(=O)c1ccc(-c2cccc(F)c2)o1` [Compound 100, 5-(3-Fluoro-phenyl)-furan-2-carboxylic acid {1-(S)-[2-(3-cyano-phenylamino)-1-(S)-methyl-ethylcarbamoyl]-2-cyclohexyl-ethyl}-amide] reads < 100 nM.

On to `C[C@@H](CNc1ccc(OC(F)(F)F)cc1)NC(=O)[C@H](CC1CCCCC1)NC(=O)c1cc(-c2ccc(F)cc2)no1` [Compound 146, 3-(4-Fluoro-phenyl)-isoxazole-5-carboxylic acid {2-cyclohexyl-1-(S)-[1-(S)-methyl-2-(4-trifluoromethoxy-phenylamino)-ethylcarbamoyl]-ethyl}-amide], for which the inhibition constant Ki is < 100 nM. Consider `COc1ccc(CC(=O)N[C@@H](CC2CCCCC2)C(=O)NCCN2CCc3cc(F)ccc32)cc1` [Compound 6, (S)-3-Cyclohexyl-N-[2-(5-fluoro-2,3-dihydro-indol-1-yl)-ethyl]-2-[2-(4-methoxy-phenyl)-acetylamino]-propionamide], for which the Ki was < 1000 nM. For the compound `Cc1cccc(C(=O)N[C@@H](CCC2CCCCC2)C(=O)NCCN2CCc3cc(F)ccc32)c1` [Compound 204, N-((S)-1-(2-(5-fluoroindolin-1-yl)ethylcarbamoyl)-3-cyclohexylpropyl)-3-methylbenzamide], the Ki was < 1000 nM. Turning to “(S)-{2-Cyclohexyl-1-[2-(5-fluoro-2,3-dihydro-indol-1-yl)-ethylcarbamoyl]-ethyl}-carbamic acid benzyl ester [Compound 220]”, the Ki is < 1000 nM. On to `CS(=O)(=O)c1ccc(C(=O)N[C@@H](CC2CCCCC2)C(=O)NCCN2CCc3cc(F)ccc32)s1` [Compound 72, 5-Methanesulfonyl-thiophene-2-carboxylic acid (S)-{2-cyclohexyl-1-[2-(5-fluoro-2,3-dihydro-indol-1-yl)-ethylcarbamoyl]-ethyl}-amide], for which the inhibitory constant (Ki) was < 100 nM.

With `COc1cccc(C(=O)NC(C(=O)N[C@@H](COCc2ccccc2)CN2CCc3cc(F)ccc32)c2ccccc2)c1` (mixture of isomers) [Compound 36, N-(S)-{[1-(R)-Benzyloxymethyl-2-(5-fluoro-2,3-dihydro-indol-1-yl)-ethylcarbamoyl]-phenyl-methyl}-3-methoxy-benzamide], the Ki was < 100 nM. The result for `CC(C)(C)C[C@H](NC(=O)OCc1ccccc1)C(=O)N[C@@H](CC(=O)O)CN1CCc2cc(F)ccc21` [Compound 159, 3-(S)-(2-(S)-Benzyloxycarbonylamino-4,4-dimethyl-pentanoylamino)-4-(5-fluoro-2,3-dihydro-indol-1-yl)-butyric acid] reads < 1000 nM; that for `COc1cccc(C(=O)N[C@@H](CC(C)(C)C)C(=O)N[C@@H](Cc2nnn[nH]2)CN2CCc3cc(F)ccc32)c1` [Compound 166, N-{1-(S)-[2-(5-Fluoro-2,3-dihydro-indol-1-yl)-1-(S)-(1H-tetrazol-5-ylmethyl)-ethylcarbamoyl]-3,3-dimethyl-butyl}-3-methoxy-benzamide], < 100 nM. The result for `C[C@@H](CN1CC(C)(C)c2cc(F)ccc21)NC(=O)[C@H](CC(C)(C)C)NC(=O)C1CCOCC1` [Compound 270, Tetrahydro-pyran-4-carboxylic acid {1-(S)-[2-(5-fluoro-3,3-dimethyl-2,3-dihydro-indol-1-yl)-1-(S)-methyl-ethylcarbamoyl]-3,3-dimethyl-butyl}-amide] reads < 1000 nM.
